Assay results: patent US7875744B2, “4-((phenoxyalkyl)thio)-phenoxyacetic acids and analogs” (Janssen Pharmaceutica NV, priority 2004, dated 2011)

Tests used:
Type in all cases: cell-based
Settings in all cases: HEK293 cells co-transfected with PPAR LBD-GAL4 and UAS-luciferase; 18-24 hrs treatment
PPAR delta = molecular target: T1, PPAR delta (Homo sapiens, UniProt Q03181); experiment: Transfection assay for PPAR receptors (GAL4-LBD luciferase reporter in HEK293 cells), PPAR delta
T1 construct: expressed in transfected cells; host or cells: HEK293
T1 sequence (Q03181 211-439 limits assumed): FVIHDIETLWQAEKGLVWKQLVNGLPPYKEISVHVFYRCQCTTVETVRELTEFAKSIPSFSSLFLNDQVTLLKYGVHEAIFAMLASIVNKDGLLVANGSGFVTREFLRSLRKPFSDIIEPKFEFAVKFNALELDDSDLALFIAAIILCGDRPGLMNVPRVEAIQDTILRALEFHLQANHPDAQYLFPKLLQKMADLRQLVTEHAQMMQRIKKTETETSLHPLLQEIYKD
Protocol: (§1) Transfection Assay Method for PPAR Receptors
(§2) HEK293 cells were grown in DMEM/F12 medium supplemented with 10% FBS and glutamine (Invitrogen) and incubated in a 5% CO2 incubator at 37° C. The cells were co-transfected using DMRIE-C reagent (Invitrogen) in serum free medium (Opti-MEM, Invitrogen) with two mammalian expression plasmids, one containing the DNA sequence coding for the ligand binding domains of either PPARα, γ or 6 fused to the yeast GAL4 DNA binding domain and the other containing the promoter sequence of the yeast GAL4 (UAS) fused to the firefly luciferase cDNA reporter. The next day, the medium was changed to DMEM/F12 medium supplemented with 5% charcoal treated serum (Hyclone) and glutamine. After 6 hrs the cells were trypsinized and seeded at a density of 50,000 cells/well into 96 well plates and incubated overnight as above. The cells were then treated with test compounds or vehicle and incubated for 18-24 hrs as above. Luciferase reporter activity was measured using the Steady-Glo Luciferase Assay Kit from Promega. DMRIE-C Reagent was purchased from GIBCO Cat. No. 10459-014. OPTI-MEM I Reduced Serum Medium was purchased from GIBCO (Cat. No. 31985). Steady-Glo Luciferase Assay Kit was purchased from Promega (Part# E254B).
(§3) A variety of example compounds have been made and tested, with a range of in vitro results. […]

PPAR gamma = molecular target: T2, PPAR gamma (Homo sapiens, UniProt P37231); experiment: Transfection assay for PPAR receptors (GAL4-LBD luciferase reporter in HEK293 cells), PPAR gamma
T2 construct: expressed in transfected cells; host or cells: HEK293
T2 sequence (P37231 238-503 limits assumed): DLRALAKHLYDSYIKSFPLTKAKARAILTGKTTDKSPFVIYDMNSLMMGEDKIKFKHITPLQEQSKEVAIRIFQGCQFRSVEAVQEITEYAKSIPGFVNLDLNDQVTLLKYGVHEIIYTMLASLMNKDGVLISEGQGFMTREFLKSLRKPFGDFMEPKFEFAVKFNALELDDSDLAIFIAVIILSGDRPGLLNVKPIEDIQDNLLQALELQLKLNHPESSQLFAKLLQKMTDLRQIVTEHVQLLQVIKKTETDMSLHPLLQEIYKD
Protocol: as §1, §2, §3

PPAR alpha = molecular target: T3, PPAR alpha (Homo sapiens, UniProt Q07869); experiment: Transfection assay for PPAR receptors (GAL4-LBD luciferase reporter in HEK293 cells), PPAR alpha
T3 construct: expressed in transfected cells; host or cells: HEK293
T3 sequence (Q07869 239-466 limits assumed): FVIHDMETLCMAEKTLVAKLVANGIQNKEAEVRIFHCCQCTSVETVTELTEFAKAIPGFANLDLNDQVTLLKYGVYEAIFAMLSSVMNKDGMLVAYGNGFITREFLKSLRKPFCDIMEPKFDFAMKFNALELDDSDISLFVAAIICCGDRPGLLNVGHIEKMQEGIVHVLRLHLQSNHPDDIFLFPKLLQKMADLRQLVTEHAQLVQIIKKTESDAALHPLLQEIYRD
Protocol: as §1, §2, §3

- EC50 (PPAR delta): 0.0415 µM
- EC50 (PPAR gamma): 0.899 µM
- EC50 (PPAR alpha): 0.9 µM
SMILES: C=C(COc1ccc(OC(F)(F)F)cc1)CSc1ccc(OC(C)(C)C(=O)O)c(C)c1 [Compound 2]
